Type in all cases: functional
The subject of assay [1] is Staphylococcus aureus. In words: Antibacterial activity against Staphylococcus aureus ATCC 6538 by broth microdilution method.
Assay [2] relates to Staphylococcus aureus. In words: Antibacterial activity against methicillin resistant Staphylococcus aureus ATCC 43300 by broth microdilution method.
In another assay the test system is Pseudomonas aeruginosa. Kind of assay: Antibacterial activity against Pseudomonas aeruginosa ATCC 10145 by broth microdilution method.
The test system of another assay is Escherichia coli. Kind of assay: Antibacterial activity against Escherichia coli ATCC 11775 by broth microdilution method. (In general: Broth dilution looks for growth in wells or tubes with falling amounts of substance.)
Another assay relates to Candida albicans. In words: Antibacterial activity against Candida albicans ATCC 10231 by broth microdilution method.
A further assay deals with Nakaseomyces glabratus. Kind of assay: Antibacterial activity against Candida Candida glabrata ATCC 2001 by broth microdilution method.

This note sets out measurements from ChEMBL document CHEMBL5126636, “Antibacterial Gilvocarcin-Type Aryl-C-Glycosides from a Soil-Derived Streptomyces Species” (2022).

≈ marks a conversion by molar mass, not a printed value.

The term MIC denotes the lowest concentration that inhibits growth of the organism. Low readings indicate a more susceptible organism, high ones a less susceptible organism. `C=Cc1cc(OC)c2c(c1)c(=O)oc1c2cc(OC)c2c(O)ccc([C@H]3O[C@@H]([C@@H](C)O)[C@H](O)[C@H]3O)c21`: the minimum inhibitory concentration (MIC) in the assay on Staphylococcus aureus [1] is 0.5 µg/mL (≈ 1.01 µM); with Staphylococcus aureus [2], 0.25 µg/mL (≈ 0.506 µM); in the assay on Pseudomonas aeruginosa, above 64 µg/mL; against Escherichia coli it was above 64 µg/mL; with Candida albicans, above 64 µg/mL; against Nakaseomyces glabratus, above 64 µg/mL.

As for `C=Cc1cc(OC)c2c(c1)c(=O)oc1c2cc(OC)c2c(OC(C)=O)ccc([C@H]3O[C@@H]([C@@H](C)OC(C)=O)[C@H](OC(C)=O)[C@H]3OC(C)=O)c21`, the MIC in the assay on Staphylococcus aureus [1], in the assay on Staphylococcus aureus [2], against Pseudomonas aeruginosa, in the assay on Escherichia coli, against Candida albicans and against Nakaseomyces glabratus was above 64 µg/mL each time.

`CCc1cc(OC)c2c(c1)c(=O)oc1c2cc(OC)c2c(O)ccc([C@H]3O[C@@H]([C@@H](C)O)[C@H](O)[C@H]3O)c21`: the MIC against Staphylococcus aureus [1], against Staphylococcus aureus [2], with Pseudomonas aeruginosa, with Escherichia coli, in the assay on Candida albicans and against Nakaseomyces glabratus was above 64 µg/mL each time.

As for `COc1cc2c(oc(=O)c3cc(C(O)CCl)cc(OC)c32)c2c([C@H]3O[C@@H]([C@@H](C)O)[C@H](O)[C@H]3O)ccc(O)c12` (stereo partly drawn), the MIC in the assay on Staphylococcus aureus [1], against Staphylococcus aureus [2], with Pseudomonas aeruginosa, against Escherichia coli, in the assay on Candida albicans and with Nakaseomyces glabratus was above 64 µg/mL throughout.

With `COc1cc2c(oc(=O)c3cc([C@H]4CC[C@H]4c4cc(OC)c5c(c4)c(=O)oc4c5cc(OC)c5c(O)ccc([C@H]6O[C@@H]([C@@H](C)O)[C@H](O)[C@H]6O)c54)cc(OC)c32)c2c([C@H]3O[C@@H]([C@@H](C)O)[C@H](O)[C@H]3O)ccc(O)c12`, the MIC was 8 µg/mL (≈ 8.09 µM) against Staphylococcus aureus [1]; 4 µg/mL (≈ 4.04 µM) with Staphylococcus aureus [2]; above 64 µg/mL against Pseudomonas aeruginosa; above 64 µg/mL against Escherichia coli; above 64 µg/mL against Candida albicans; above 64 µg/mL in the assay with Nakaseomyces glabratus.

Take `COc1cc2c(oc(=O)c3cc(C(C)C)cc(OC)c32)c2c([C@H]3O[C@@H]([C@@H](C)O)[C@H](O)[C@H]3O)ccc(O)c12`: the MIC against Staphylococcus aureus [1] is above 64 µg/mL; in the assay with Staphylococcus aureus [2] it was 16 µg/mL (≈ 31.3 µM); in the assay with Pseudomonas aeruginosa, above 64 µg/mL; with Escherichia coli it was above 64 µg/mL; against Candida albicans it was above 64 µg/mL; against Nakaseomyces glabratus, above 64 µg/mL.

With `COc1cc2c(oc(=O)c3cc(C)cc(OC)c32)c2c([C@H]3O[C@@H]([C@@H](C)OC(C)=O)[C@H](OC(C)=O)[C@H]3OC(C)=O)ccc(OC(C)=O)c12`, the MIC against Staphylococcus aureus [1], in the assay with Staphylococcus aureus [2], in the assay on Pseudomonas aeruginosa, in the assay with Escherichia coli, in the assay on Candida albicans and in the assay on Nakaseomyces glabratus was above 64 µg/mL each time.

Consider `COc1cc2c(oc(=O)c3cc(CO)cc(OC)c32)c2c([C@H]3O[C@@H]([C@@H](C)O)[C@H](O)[C@H]3O)ccc(O)c12`, for which the MIC against Staphylococcus aureus [1], against Staphylococcus aureus [2], against Pseudomonas aeruginosa, in the assay on Escherichia coli, in the assay on Candida albicans and with Nakaseomyces glabratus was above 64 µg/mL each time.

Take `C=Cc1cc(OC)c2c(c1)c(=O)oc1c2cc(OC)c2c(O)ccc([C@@H]3O[C@@H]([C@@H](C)O)[C@H](O)[C@H]3O)c21`: the minimal inhibitory concentration (MIC) is 64 µg/mL (≈ 129 µM) with Staphylococcus aureus [1]; 16 µg/mL (≈ 32.4 µM) with Staphylococcus aureus [2]; above 64 µg/mL against Pseudomonas aeruginosa; above 64 µg/mL against Escherichia coli; above 64 µg/mL against Candida albicans; above 64 µg/mL in the assay on Nakaseomyces glabratus.

For the compound `COc1cc2c(oc(=O)c3cc([C@H](C)OC(C)=O)cc(OC)c32)c2c([C@H]3O[C@@H]([C@@H](C)OC(C)=O)[C@H](OC(C)=O)[C@H]3OC(C)=O)ccc(OC(C)=O)c12`, the MIC against Staphylococcus aureus [1], against Staphylococcus aureus [2], in the assay on Pseudomonas aeruginosa, with Escherichia coli, against Candida albicans and with Nakaseomyces glabratus was above 64 µg/mL throughout.

As for `COc1cc2c(oc(=O)c3cc(C(O)CO)cc(OC)c32)c2c([C@H]3O[C@@H]([C@@H](C)O)[C@H](O)[C@H]3O)ccc(O)c12` (stereo partly drawn), the MIC against Staphylococcus aureus [1], in the assay on Staphylococcus aureus [2], against Pseudomonas aeruginosa, against Escherichia coli, in the assay with Candida albicans and against Nakaseomyces glabratus was above 64 µg/mL throughout.

Turning to `COc1cc2c(oc(=O)c3cc([C@H](C)O)cc(OC)c32)c2c([C@H]3O[C@@H]([C@@H](C)O)[C@H](O)[C@H]3O)ccc(O)c12`, the MIC in the assay with Staphylococcus aureus [1], against Staphylococcus aureus [2], with Pseudomonas aeruginosa, against Escherichia coli, in the assay on Candida albicans and in the assay on Nakaseomyces glabratus was above 64 µg/mL each time.

As for `COc1cc2c(oc(=O)c3cc(CCO)cc(OC)c32)c2c([C@H]3O[C@@H]([C@@H](C)O)[C@H](O)[C@H]3O)ccc(O)c12`, the minimum inhibitory concentration (MIC) in the assay on Staphylococcus aureus [1] was 32 µg/mL (≈ 62.4 µM); in the assay on Staphylococcus aureus [2], 64 µg/mL (≈ 125 µM); against Pseudomonas aeruginosa, above 64 µg/mL; against Escherichia coli, above 64 µg/mL; in the assay with Candida albicans, above 64 µg/mL; in the assay with Nakaseomyces glabratus, above 64 µg/mL.

For `C=Cc1cc(OC)c2c(c1)c(=O)oc1c3cccc(O)c3c(OC)cc12`, the MIC with Staphylococcus aureus [1], against Staphylococcus aureus [2], against Pseudomonas aeruginosa, against Escherichia coli, against Candida albicans and in the assay on Nakaseomyces glabratus was above 64 µg/mL each time.

In the case of `COc1cc2c(oc(=O)c3cc(C)cc(OC)c32)c2c([C@H]3O[C@@H]([C@@H](C)O)[C@H](O)[C@H]3O)ccc(O)c12`, the MIC in the assay on Staphylococcus aureus [1] is 1 µg/mL (≈ 2.07 µM); against Staphylococcus aureus [2], 2 µg/mL (≈ 4.15 µM); with Pseudomonas aeruginosa, above 64 µg/mL; against Escherichia coli, above 64 µg/mL; against Candida albicans it was above 64 µg/mL; with Nakaseomyces glabratus, above 64 µg/mL.

`C=Cc1cc(OC)c2c(c1)c(=O)oc1c2cc(OC)c2c(O)ccc([C@@H]3O[C@@H]([C@H](O)CO)[C@H](O)[C@H]3O)c21`: the minimal inhibitory concentration (MIC) with Staphylococcus aureus [1] was 16 µg/mL (≈ 31.3 µM); in the assay on Staphylococcus aureus [2] it was 8 µg/mL (≈ 15.7 µM); in the assay with Pseudomonas aeruginosa it was above 64 µg/mL; in the assay on Escherichia coli it was above 64 µg/mL; in the assay with Candida albicans it was above 64 µg/mL; with Nakaseomyces glabratus, above 64 µg/mL.

As for `O=C(O)c1cn(C2CC2)c2cc(N3CCNCC3)c(F)cc2c1=O` [CIPROFLOXACIN], the MIC against Staphylococcus aureus [1] worked out at 0.25 µg/mL (≈ 0.754 µM); against Staphylococcus aureus [2], 0.5 µg/mL (≈ 1.51 µM).
